Assay: xn = mol fraction of the nth substance listed, in the solute-free solvent

CCC(C)n1ncn(-c2ccc(N3CCN(c4ccc(OCC5COC(Cn6cncn6)(c6ccc(Cl)cc6Cl)O5)cc4)CC3)cc2)c1=O (stereo unspecified) + ClC(Cl)Cl + CO
solubility (g/100 g solution)
Details	x2 = 0.02929	x2 = 0.06358	x2 = 0.1043	x2 = 0.1533	x2 = 0.2136	x2 = 0.2895	x2 = 0.3879	x2 = 0.5207	x2 = 0.7097
288.15 K	0.123	0.229	0.436	0.789	1.79	5.31	16.6	24.9	29.3
293.15 K	0.147	0.272	0.515	0.931	2.3	6.83	18.2	26.3	30.1
298.15 K	0.174	0.318	0.607	1.09	2.88	8.58	19.9	27.7	30.9
303.15 K	0.205	0.373	0.708	1.29	3.66	10.8	21.7	29.1	31.7
308.15 K	0.242	0.434	0.827	1.5	4.54	13.4	23.6	30.4	32.5

CCCCCOC(=O)Nc1nc(=O)n(C2OC(C)C(O)C2O)cc1F (stereo unspecified) + CCOC(C)=O + CCCCCC
solubility (g/100 g solution)
Details	278.15 K	283.15 K	288.15 K	293.15 K	298.15 K	303.15 K	308.15 K	313.15 K	318.15 K	323.15 K
x2 = 0.09988	0.0133	0.0183	0.0254	0.0345	0.0462	0.0616	0.0815	0.107	0.139	0.18
x2 = 0.2008	0.0154	0.0212	0.0286	0.0382	0.0506	0.0664	0.0863	0.111	0.143	0.181
x2 = 0.3	0.0501	0.0621	0.0766	0.0936	0.113	0.137	0.165	0.197	0.233	0.276
x2 = 0.4	0.113	0.134	0.159	0.219	0.187	0.255	0.296	0.341	0.392	0.448
x2 = 0.5003	0.141	0.171	0.207	0.248	0.296	0.351	0.413	0.484	0.565	0.655
x2 = 0.6	0.309	0.384	0.474	0.581	0.706	0.853	1.02	1.22	1.45	1.71
x2 = 0.6998	0.423	0.535	0.67	0.833	1.03	1.26	1.53	1.85	2.22	2.65
x2 = 0.7998	0.53	0.694	0.902	1.16	1.48	1.87	2.34	2.91	3.58	4.39
x2 = 0.8999	0.819	1.09	1.43	1.85	2.38	3.04	3.84	4.8	5.96	7.33

Nc1[nH]c(=O)ncc1F + CN(C)C=O + CC(C)O
solubility (g/100 g solution)
Details	283.15 K	288.15 K	293.15 K	298.15 K	303.15 K	308.15 K	313.15 K	318.15 K	323.15 K
x2 = 0.0837	0.0457	0.057	0.0702	0.0871	0.105	0.126	0.149	0.174	0.203
x2 = 0.1705	0.0578	0.0715	0.0887	0.107	0.128	0.152	0.178	0.209	0.245
x2 = 0.2605	0.0731	0.0892	0.107	0.13	0.155	0.183	0.214	0.248	0.285
x2 = 0.354	0.0896	0.107	0.127	0.153	0.182	0.214	0.249	0.288	0.333
x2 = 0.4512	0.106	0.126	0.151	0.18	0.213	0.248	0.284	0.327	0.376
x2 = 0.5522	0.121	0.143	0.17	0.203	0.236	0.273	0.315	0.36	0.413
x2 = 0.6573	0.137	0.16	0.189	0.221	0.258	0.298	0.342	0.391	0.447
x2 = 0.7668	0.153	0.18	0.209	0.242	0.281	0.322	0.369	0.426	0.484
x2 = 0.8809	0.173	0.201	0.23	0.267	0.306	0.351	0.402	0.46	0.524

Nc1nccnc1Cl + CO + O
solubility (g/100 g solution)
Details	278.15 K	283.15 K	288.15 K	293.15 K	298.15 K	303.15 K	308.15 K	313.15 K	318.15 K	323.15 K
x2 = 0.05881	0.0549	0.0728	0.0951	0.118	0.143	0.169	0.195	0.225	0.254	0.284
x2 = 0.1233	0.118	0.155	0.201	0.248	0.298	0.348	0.402	0.461	0.517	0.578
x2 = 0.1942	0.209	0.274	0.352	0.433	0.519	0.604	0.695	0.795	0.89	0.996
x2 = 0.2727	0.322	0.42	0.538	0.661	0.79	0.918	1.06	1.21	1.35	1.51
x2 = 0.3599	0.423	0.542	0.697	0.868	1.06	1.24	1.44	1.66	1.86	2.1
x2 = 0.4576	0.533	0.708	0.918	1.15	1.37	1.6	1.86	2.13	2.4	2.73
x2 = 0.5675	0.656	0.886	1.15	1.42	1.7	1.98	2.31	2.65	3.02	3.44
x2 = 0.6923	0.804	1.06	1.35	1.67	1.97	2.3	2.71	3.13	3.58	4.07
x2 = 0.835	0.917	1.2	1.55	1.95	2.37	2.78	3.25	3.75	4.25	4.86
